According to US11964000B2, “Cancer treatment methods using nanofiber stabilized growth factors” (Northwestern University, priority 2020, dated 2024):
“Also recorded” adds a separate entry of the source. Residues, ends and D or L forms follow the SMILES beside them. Groups on a side chain read outwards from the residue. *: point of attachment. X1 = CC(=O)N[C@H]1[C@H](OCCn2cc(CCC(=O)*)nn2)O[C@H](COS(=O)(=O)O)[C@@H](OS(=O)(=O)O)[C@@H]1OS(=O)(=O)O; Palmitoyl = CCCCCCCCCCCCCCCC(=O)*; AEEA = NCCOCCOCC(=O)O

Columns and labels:
[1] = target: T1, BMP4 (Homo sapiens, UniProt P12644); test: ELISA of BMP4 half-life with peptide amphiphile nanostructures; details: BMP4 with PA nanostructures
T1 sequence (P12644 293-408): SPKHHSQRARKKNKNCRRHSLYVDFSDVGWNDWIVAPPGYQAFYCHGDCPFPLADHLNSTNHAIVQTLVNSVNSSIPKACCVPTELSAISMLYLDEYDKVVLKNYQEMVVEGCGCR
Description: FIG. 3. […] (FIG. 3A) Molecular structure of GlncPA molecule (i.e. the glycosylated peptide amphiphile or “GPA”) and schematic of the self-assembled GlncPA nanofiber. The grey molecular region guides the self-assembly process into nanofibers, the blue molecular region contains the tri-sulfated monosaccharide responsible for protein binding actions. (FIG. 3B) SEM of GlncPA nanofiber bundles after exposure to blood proteins for 5 minutes. […] (Abbreviation: E2PA=filler PA=E2-PA, GlncPA=glycosylated PA=GPA)
The grey molecular region guides the self-assembly process into nanofibers, the blue molecular region contains the tri-sulfated monosaccharide responsible for protein binding actions.

[2] = Cy3-coupled PA, intracranial injection, compared with E2PA and MixPA
Description: (FIG. 6A) Intracranial distribution of glycosylated (GlncPA), E2 (E2PA) and glycosylated+E2 (MixPA) peptide amphiphiles coupled with Cy3.
Intracranial distribution of PAs administered directly into mouse brain, as well as the anti-tumor activity of direct intratumoral administration of PA-bound BMP4, was investigated.

[3] = test system: pSMAD1/5/8; test: Western blot of pSMAD1/5/8 in HGG cells treated with PAs with and without BMP4; type: cell-based, human; details: PA 25 μM with BMP4 5 ng/ml, 24h and 72h; KNS42 and CHLA200 cells
Text: (§1) FIG. 5. Self-assembled peptide amphiphile nanostructures extend and enhance BMP4 effects in pediatric high grade glioma cells in vitro. (FIG. 5A) Western blots show PAs enhance BMP4 function by activating its downstream target pSMAD1/5/8 in pediatric glioma KNS42 (FIG. 5B) and CHLA200 cells. (FIG. 5C) Increased therapeutic efficacy in response to carboplatin treatment.
(§2) To investigate biological effects of PA-BMP4, HGG responses to different types of PAs, both with and without bound BMP4, were analyzed. HGG cells were treated with BMP4 (5 ng/ml), GlncPA (25 μM) and GlncPA (25 μM)-BMP4 (5 ng/ml), E2-PA (25 μM) and E2-PA (25 μM)-BMP4 (5 ng/ml) for 24h and 72h.

[4] = test system: HGG cells; test: HGG cell chemosensitivity (carboplatin) with PA-bound BMP4; type: cell-based, human; details: PA 25 μM with BMP4 5 ng/ml; response to carboplatin treatment
Text: as §1, §2

[5] = test system: KNS42 cells; test: KNS42 cell viability in response to vincristine and vinblastine after BMP4 treatment; type: cell-based, human
Text: (§3) FIG. 2. BMP4 increases chemotherapeutic efficacy via reducing SETD1A and H3K4me3. (FIG. 2A) H3K4me3 levels in pediatric high-grade glioma cells in response to BMP4 (1 to 100/ng/ml). (FIG. 2B) SETD1A, SMAD1/5/8, MDR1, H3K4me3 levels in pediatric high-grade glioma-KNS42 cells and LCH-13-pGBM patient derived primary cultured cells. (FIG. 2C) KNS42 cell viability in response to vincristine (VCR) and vinblastine (VBL) with/without Dorsomorphine, a phosphoSMAD1/5/8 inhibitor. (FIG. 2D, FIG. 2E) KNS42 cell viability in response to VCR and VBL following down- or up-regulation of SETD1A via siSETD1A (D) or pET28-SETD1A and pET28-SETD1A with PSC833, a specific MDR1 inhibitor (E), respectively. (FIG. 2F) Protein immunoprecipitation with SMAD1/5/8, pSMAD1/5/8 antibodies from total protein extracts from BMP4 treated KNS42 cells using Biotin-streptavidin kit (Thermo Fisher) and detected with SETD1A, SMAD1/5/8, pSMAD1/5/8 using western blots.
(§4) This decreasing effect is reversed by Dorsomorphine, an inhibitor of pSMAD1/5/8 (FIG. 2C). In parallel, it was also tested and verified that SETD1A is associated with chemosensitivity in vitro in HGG cells (FIGS. 2D and E). […] Thus, it was hypothesized that BMP4 is altering gene expression through its effect on histone PTM. These findings prompted investigation of 1) in addition to H3K4me3, determining other histone PTMs that are affected subsequent to BMP4 treatment of tumor cells; and 2) other gene expression alterations that contribute to the heightened tumor cell response to cytotoxic therapy following BMP4 treatment.

[6] = test system: H3K4me3; test: H3K4me3 levels in pediatric high-grade glioma cells in response to BMP4; type: cell-based, human; details: BMP4 1 to 100 ng/ml
Text: as §3
This decreasing effect is reversed by Dorsomorphine, an inhibitor of pSMAD1/5/8 (FIG. 2C). In parallel, it was also tested and verified that SETD1A is associated with chemosensitivity in vitro in HGG cells (FIGS. 2D and E). […] Thus, it was hypothesized that BMP4 is altering gene expression through its effect on histone PTM. […]

[7] = test system: pSMAD1/5/8, SETD1A, MDR1; test: Western blot of SETD1A, SMAD1/5/8, MDR1 in KNS42 cells and LCH-13-pGBM primary cultured cells after BMP4; type: cell-based, human; details: KNS42 and LCH-13-pGBM cells, BMP4 treatment
Text: as §3, §4

In the case of `CCCCCCCCCCCCCCCC(=O)N[C@H](C(=O)N[C@H](C(=O)N[C@@H](C)C(=O)N[C@@H](C)C(=O)N[C@@H](CCC(=O)O)C(=O)N[C@@H](CCC(=O)O)C(=O)N[C@@H](CCCCNC(=O)COCCOCCNC(=O)CCc1cn(CCO[C@@H]2O[C@H](COS(=O)(=O)O)[C@@H](OS(=O)(=O)O)[C@H](OS(=O)(=O)O)[C@H]2NC(C)=O)nn1)C(N)=O)C(C)C)C(C)C` [GlncPA] (Palmitoyl-VVAAEEK([AEEA-X1])-NH2), the BMP4 half-life [1] is reported as “markedly prolong the half-life of BMP4” and the intracranial distribution [2] is reported as “greater distribution”.

With `CCCCCCCCCCCCCCCC(=O)N[C@H](C(=O)N[C@H](C(=O)N[C@@H](C)C(=O)N[C@@H](C)C(=O)N[C@@H](CCC(=O)O)C(=O)N[C@@H](CCC(=O)O)C(N)=O)C(C)C)C(C)C` [E2-PA] (Palmitoyl-VVAAEE-NH2) the BMP4 half-life [1] was “extend BMP4 half-life”, the “BMP4 activity as phosphorylation of SMAD1/5/8” value [3] was “enhance BMP4 activity” and the HGG cell chemosensitivity [4] was “increased HGG cell chemosensitivity”.

In the case of `c1cc(-c2cnn3cc(-c4ccc(OCCN5CCCCC5)cc4)cnc23)ccn1` [Dorsomorphine, reference compound], the “effect on BMP4-induced decrease of cell viability with VCR or VBL” value ([5]; Dorsomorphine, inhibitor of pSMAD1/5/8, added) is reported as “reversed”.

B1: Bone morphogenetic protein 4 (protein)
chain: SPKHHSQRARKKNKNCRRHSLYVDFSDVGWNDWIVAPPGYQAFYCHGDCPFPLADHLNSTNHAIVQTLVNSVNSSIPKACCVPTELSAISMLYLDEYDKVVLKNYQEMVVEGCGCR
With B1 the “cell viability with vinblastine (VBL)” value ([5]; BMP4 for 48 hrs, then VBL 2 μg/ml, relative to VBL alone) was “markedly decreased cell viability”, the “cell viability with vincristine (VCR)” value ([5]; BMP4 for 48 hrs, then VCR 1 μg/ml, relative to VCR alone) was “markedly decreased cell viability” and the H3K4me3 level [6] was “reduces H3K4me3; also recorded: significant decrease in H3K4me3”. The “expression of SETD1A” value [7] was “decreasing expression of SETD1A”, the “expression of multidrug resistant gene 1 (MDR1)” value [7] was “decreasing expression” and the “phosphorylation of SMAD1/5/8 (pSMAD1/5/8)” value [7] was “increases phosphorylation of SMAD1/5/8”.
